Test results: patent publication US7659277B2, “Ubiquitin ligase inhibitors and methods related thereto” (Proteologies, Ltd., priority 2003, dated 2010)

target: T1, POSH (Homo sapiens, UniProt Q7Z6J0); assay: Selectivity (% A in 1 μM), ubiquitin ligase activity of POSH; format: biochemical; conditions: % activity at 1 μM compound; control is related to 100% activity; HTS protocol; read-out: Selectivity (% A* in 1 μM) POSH
T1 construct: GST-POSH lot NB81/p.118 3.6 mg/ml; fused on or other part: GST tag, used for detection with anti-GST XL665
T1 sequence (Q7Z6J0 1-269 limits assumed): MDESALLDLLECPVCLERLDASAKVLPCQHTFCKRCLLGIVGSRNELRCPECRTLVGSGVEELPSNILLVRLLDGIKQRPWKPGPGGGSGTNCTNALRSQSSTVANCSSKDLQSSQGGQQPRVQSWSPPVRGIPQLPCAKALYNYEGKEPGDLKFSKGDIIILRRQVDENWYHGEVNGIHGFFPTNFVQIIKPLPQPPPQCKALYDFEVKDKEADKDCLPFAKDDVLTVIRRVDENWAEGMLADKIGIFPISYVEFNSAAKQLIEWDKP
Experimental: Experimental Protocols: 1. HTS Screening Assay Procedure • Microplates 10109D to 10114D compounds at 1 mM. • (Controls in column 1). • All compounds were perchase from ChemBridge corporation: ChemBridge corporation 16981 Via Tazon, Suite G San Diego, Calif. 92127 a. Microplates Labeling • Put labels to 6 PS U-bottom clear microplate. • Put labels to 18 black microplates (triplicats). b. Microplates Preparation • Put 100 μl GST-POSH at 33 nM in wells of the clear PS U-bottom microplates (exept wells A1-D1). • Negative control: place 100 μl dH2O in wells A1-D1. • (Positive control: place 100 μl GST-POSH at 33 nM in wells E1-H1). • Put 8 μl enzymes solution ×4 to black microplates (column 1 to 11). c. Incubation of E3 with Compounds • Transfer 5 μl of compounds (at 1 mM) to the microplates containing 100 μl GST-POSH. • Add 5 μl of DMSO to controls column 1. • Incubation 30 minutes at RT. d. […] 2. […] Microplates Labeling • Put labels to 4 clear PP clear microplate (18.2 μM, 9.1 uM, 1.82 uM, 910 nM,). • Put labels to 5 clear PS U-bottom clear microplate 4.44 μM, 909, 444, 91 and 44 nM) • Put labels to 15 black microplates (triplicates). f. Original Microplate Dilutions • Put DMSO 40 μl to (18.2 μM, 1.82 uM plates) and 20 ul to (9.1 uM, 910 nM plates. • Mix by pipetation the original microplate (3× up and down 45 μl). • Transfer 10 μl of compounds from the original microplate (at 91 μM) to the next microplate (=18.2 μM) on splitting apparatus. • Mix by pipetation the 18.2 uM microplate (3× up and down 45 μl). • Transfer 20 μl of compounds from the 18.2 uM microplate to the next microplate (=9.1 μM) on splitting apparatus. • Mix by pipetation the 9.1 uM microplate (3× up and down 45 μl). • Transfer 10 μl of compounds from the 9.1 uM microplate to the next microplate (=1.82 μM) on splitting apparatus. • Mix by pipetation the 1.82 uM microplate (3× up and down 45 μl). • Transfer 20 μl of compounds from the 1.82 uM microplate to the next microplate (=910 nM) on splitting apparatus • Mix by pipetation. g. Microplates Preparation • Put 123 μl GST-POSH at 33 nM in wells of the 5 clear PS U-bottom clear microplates. • Positive control: place 123 μl GST-POSH at 33 nM in well A12-h12 13 μl DMSO. • Negative control: place 123 μl dH2O in well B1 and 13 μl DMSO. • Put 8 μl enzymes solution ×4 to 15 black microplates. • Controls: put 8 μl enzymes solution ×4 to wells A1 to F1. h. Incubation of POSH with Compounds • Take 7 μl of compounds at original plate (91 μM) and put into the 4.44 μM labeled microplate containing 123 μl GST-POSH, on splitting apparatus. • Mix by pipetation (3× up and down 115 μl), note time. • Take 7 μl of compounds at 18.2 μM and put into the 910 nM labeled microplate containing 123 μl GST-POSH, on splitting apparatus. • Mix by pipetation (3× up and down 115 μl), note time. • Take 7 μl of compounds at 9.1 μM and put into the 444 nM labeled microplate containing 123 μl GST-POSH, on splitting apparatus. • Mix by pipetation (3× up and down 115 μl), note time. • Take 7 μl of compounds at […] and put into the 91 nM labeled microplate containing 123 μl GST-POSH, on splitting apparatus. • Mix by pipetation (3× up and down 115 μl), note time. • Take 7 μl of compounds at 91.0 nM and put into the 44 nM labeled microplate containing 123 μl GST-POSH, on splitting apparatus. • Mix by pipetation (3× up and down 115 μl), note time. • Incubation 30 minutes at RT. i.

SMILES	remaining activity at 1 µM
O=C1NC(=O)N(c2ccc(Br)cc2)C(=O)/C1=C/c1ccc(O)cc1 [Compound 5]	13%
O=C1NC(=S)N(c2ccccc2)C(=O)/C1=C\c1c(Cl)cccc1Cl [Compound 6]	14%
COc1ccc(N2C(=O)NC(=O)/C(=C\c3ccc(Cl)cc3)C2=O)cc1 [Compound 7]	108%
COc1cc(C=C2C(=O)N(C)C(=S)N(C)C2=O)ccc1O [Compound 9]	91%
COc1ccccc1N1C(=O)NC(=O)/C(=C\C=C\c2ccccc2)C1=O [Compound 10]	15%
COc1ccc(/C=C2\C(=O)NC(=S)N(c3ccccc3)C2=O)cc1 [Compound 11]	21%
C=CCN1C(=O)NC(=O)/C(=C/c2ccc(F)cc2)C1=O [Compound 12]	54%
O=C1C(=Cc2ccco2)C(=O)N(c2ccccc2)C(=S)N1c1ccccc1 [Compound 13]	7%
COc1cc(N/C=C2/C(=O)NC(=S)N(c3cccc(C)c3)C2=O)cc(OC)c1 [Compound 16]	51%
COc1cc(N/C=C2/C(=O)NC(=S)N(c3ccc(F)cc3)C2=O)cc(OC)c1 [Compound 17]	71%
COC(=O)c1ccc(N2C(=O)c3cccc(N)c3C2=O)cc1 [Compound 21]	83%
O=C1CC(NNc2ccccc2)C(=O)N1c1cccc(Cl)c1 (stereo not drawn) [Compound 22]	26%
O=C1C=CC(=O)N1c1cc(Cl)cc(Cl)c1 [Compound 23]	9%
O=C1\C(=C/C=C/C=C/Nc2ccccc2)SC(=S)N1c1ccccc1 [Compound 24]	7%
CC(C)Oc1ccc(/C=C2/SC(=S)NC2=O)cc1 [Compound 26]	69%
CC(=C\c1ccccc1)/C=C1/SC(=N)NC1=O [Compound 31]	105%
COc1cc(/C=C2\SC(=O)NC2=O)ccc1OCc1ccc(Cl)cc1Cl [Compound 34]	23%
O=C1N=C(c2ccccc2)S/C1=C/c1ccc(-c2cccc([N+](=O)[O-])c2)o1 [Compound 36]	6%

SMILES	remaining activity at 1 µM
N/N=C\c1ccc(-c2cccs2)s1 [Compound 37]	41%
O=c1nc(C(F)(F)F)cc(/C=C/c2ccc(-c3ccc(Br)cc3)o2)[nH]1 [Compound 39]	29%
O=c1oc2cc(O)ccc2cc1-c1csc(-c2ccc(Cl)cc2)n1 [Compound 40]	24%
O=C1N=C(c2ccccc2)S/C1=C/c1ccc2ccccc2c1 [Compound 41]	17%
COc1ccccc1/C=C1\N=C(c2ccccc2Cl)OC1=O [Compound 49]	77%
O=C1/C(=C\c2ccc(Cl)c([N+](=O)[O-])c2)Sc2ccccc21 [Compound 50]	39%
O=c1/c(=C/c2cccc([N+](=O)[O-])c2O)sc2nc3ccccc3n12 [Compound 51]	51%
O=C1/C(=C\c2cccc([N+](=O)[O-])c2)Sc2ccccc21 [Compound 52]	80%
Oc1c(Br)cc(Cl)cc1/C=N/c1ccccc1Br [Compound 58]	40%
O=[N+]([O-])c1ccc(-c2ccc(/N=C/c3c(O)ccc4ccccc34)cc2)cc1 [Compound 60]	22%
Oc1c(Br)cc(Br)cc1/C=N/c1ccc(Br)cn1 [Compound 61]	35%
Oc1c(Br)cc(Br)cc1/C=N/c1nc2ccccc2s1 [Compound 62]	37%
Oc1c(Cl)cc(Cl)cc1/C=N/c1ccc(-c2nc3ccccc3[nH]2)cc1 [Compound 63]	30%
Oc1c(Br)cc(Cl)cc1/C=N/c1ccccn1 [Compound 64]	63%
Cc1cc(C)c(O)c(/N=C/c2c(O)ccc3ccccc23)c1 [Compound 65]	8%
Oc1ccc2ccccc2c1/C=N/c1ncc(Br)cc1Br [Compound 66]	53%
O=[N+]([O-])c1ccc2c(c1)Cc1cc(/N=C/c3ccc(Br)cc3)ccc1-2 [Compound 67]	103%
CCOC(=O)c1c(/N=C/c2cc(Br)ccc2O)sc2c1CCCC2 [Compound 68]	72%

same assay, conditions: read-out: Selectivity (% A* in 1 μM) POSH

SMILES	remaining activity at 1 µM
O=C1NC(=O)C(=Cc2ccc(-c3cc(Cl)ccc3Cl)o2)C(=O)N1 [Compound 1]	19%
C=CCN1C(=O)NC(=O)/C(=C\c2ccccc2)C1=O [Compound 2]	50%
COc1ccc(N2C(=O)NC(=O)/C(=C\C=C\c3ccccc3)C2=O)cc1 [Compound 8]	9%
CCCCCCOc1ccc(C=C2C(=O)NC(=S)NC2=O)cc1 [Compound 15]	14%
O=C1C=CC(=O)N1c1ccccc1Cl [Compound 18]	24%
O=C1C=CC(=O)N1c1ccc(Cl)cc1 [Compound 19]	39%
O=C1C=CC(=O)N1c1ccc(OC(F)(F)C(F)F)c(N2C(=O)C=CC2=O)c1 [Compound 20]	33%
O=C1S/C(=C/c2ccc(-c3ccc([N+](=O)[O-])cc3Cl)o2)C(=O)N1c1ccccc1 [Compound 27]	6%
O=C(O)c1ccc(-c2ccc(/C=c3\sc4nc5ccccc5n4c3=O)o2)cc1 [Compound 28]	26%
N=C1NC(=O)/C(=C\c2ccc(-c3ccc(I)cc3)o2)S1 [Compound 29]	42%
O=c1/c(=C/c2ccc(N3CCOCC3)cc2)sc2nc3ccccc3n12 [Compound 32]	66%
S=C(c1ccc(-c2cc(Cl)ccc2Cl)o1)N1CCCCC1 [Compound 35]	44%
O=C1C(=Cc2ccc(-c3ccc(Br)cc3)o2)C(=O)c2ccccc21 [Compound 38]	17%
CN(C)c1ccc(/C=C2\C(=O)N(c3ccc([N+](=O)[O-])cc3)N=C2N2CCOCC2)cc1 [Compound 42]	138%
Cc1ccc2nsnc2c1/N=C/c1c(O)ccc2ccccc12 [Compound 53]	12%
Cc1ccc(/N=C/c2cc(Br)cc(Br)c2O)c(C)c1 [Compound 54]	30%
COc1ccc(/C=N/c2ccc(Nc3ccccc3)cc2)c2ccccc12 [Compound 55]	40%
Cc1ccc(/N=C/c2cccc(O)c2O)cc1C [Compound 56]	27%
OCc1cccc(/N=C/c2cccc(O)c2O)c1 [Compound 57]	20%
CC(C)(C)c1ccc(O)c(/N=C/C=C/c2cccc([N+](=O)[O-])c2)c1 [Compound 59]	26%
Cc1cc([N+](=O)[O-])ccc1/N=C/c1ccc[nH]1 [Compound 70]	151%
